Experimental data published in US20190263799A1, “1H-IMIDAZO[4,5-B]PYRIDINYL AND 2-OXO-2,3-DIHYDRO-1H-IMIDAZO[4,5-B]PYRIDINYL HETEROCYCLIC BET BROMODOMAIN INHIBITORS” (ZENITH EPIGENETICS LTD., priority 2015, published 2019).
Read-outs that look alike come from different tables or passages of the source.

How the values were obtained:
[1] = target: T1, BRD4(1) (Homo sapiens, UniProt O60885); experiment: Inhibition of tetra-acetylated histone H4 binding to individual BET bromodomains (AlphaScreen); conditions: His-tagged BRD4(1) 20 nM, biotinylated tetra-acetylated histone H4 peptide, 30 min incubation; read-out: FRET activity BRD4(1)
T1 construct: N-terminally His-tagged bromodomains (BRD4(1) at 20 nM and BRD4(2) at 100 nM); made in house; host or cells: E. coli BL21(DE3)
Method: Proteins were cloned and overexpressed with a N-terminal 6×His tag, then purified by nickel affinity followed by size exclusion chromatography. Briefly, E. coli BL21(DE3) cells were transformed with a recombinant expression vector encoding N-terminally Nickel affinity tagged bromodomains from Brd2, Brd3, Brd4. Cell cultures were incubated at 37° C. with shaking to the appropriate density and induced overnight with IPTG. The supernatant of lysed cells was loaded onto Ni-IDA column for purification. Eluted protein was pooled, concentrated and further purified by size exclusion chromatography. Fractions representing monomeric protein were pooled, concentrated, aliquoted, and frozen at −80° C. for use in subsequent experiments.
Binding of tetra-acetylated histone H4 peptide (Millipore) and BET bromodomains was confirmed by Amplified Luminescent Proximity Homogenous Assay (AlphaScreen). N-terminally His-tagged bromodomains (BRD4(1) at 20 nM and BRD4(2) at 100 nM) and biotinylated tetra-acetylated histone H4 (10-25 nM) were incubated in the presence of nickel chelate acceptor beads and streptavidin donor beads (PerkinAlmer, 6760000K) added to a final concentration of 2 μg/mL under green light in a white 96 well microtiter plate (Greiner). For inhibition assays, serially diluted compounds were added to the reaction mixtures in a 0.1% final concentrations of DMSO. Final buffer concentrations were 50 mM HEPES, 100 mM NaCl and 0.1% BSA buffer, pH 7.4 and optimized to 30 min incubation time. Assay plates were read at 570 nm on a Synergy H4 Plate Reader (Biotek). IC50 values were determined from a dose response curve.

[2] = tested on: cMYC; experiment: Inhibition of cMYC expression in cancer cell lines (MV4-11, real-time PCR); type: cell-based; conditions: Homo sapiens, read-out: Myc activity
Method: MV4-11 cells (CRL-9591) were plated at a density of 2.5×10^4 cells per well in 96 well U-bottom plates and treated with increasing concentrations of test compound or DMSO (0.1%) in IMDM media containing 10% FBS and penicillin/streptomycin, and incubated for 3 h at 37° C. Triplicate wells were used for each concentration. Cells were pelleted by centrifugation and harvested using the mRNA Catcher PLUS kit according to manufacturer's instructions. The eluted mRNA isolated was then used in a one-step quantitative real-time PCR reaction, using components of the RNA UltraSense™ One-Step Kit (Life Technologies) together with Applied Biosystems TaqMan® primer-probes for cMYC and Cyclophilin. Real-time PCR plates were run on a ViiA™7 real time PCR machine (Applied Biosystems), data were analyzed, normalizing the Ct values for cMYC to an internal control, prior to determining the fold expression of each sample, relative to the control.

[3] = tested on: MV4-11 cells; experiment: Inhibition of cell proliferation in cancer cell lines (MV4-11, CellTiter Aqueous One); type: cell-based; conditions: Homo sapiens, read-out: Proliferation activity
Method: MV4-11 cells (CRL-9591) were plated at a density of 5×10^4 cells per well in 96 well flat bottom plates and treated with increasing concentrations of test compound or DMSO (0.1%) in IMDM media containing 10% FBS and penicillin/streptomycin. Triplicate wells were used for each concentration and a well containing only media was used as a control. Plates were incubated at 37° C., 5% CO2 for 72 h before adding 20 μL of the CellTiter Aqueous One Solution (Promega) to each well and incubating at 37° C., 5% CO2 for an additional 3-4 h. The absorbance was read at 490 nm in a spectrophotometer and the percentage of cell titer relative to DMSO-treated cells was calculated after correcting for background by subtracting the blank well's signal. IC50 values were calculated using the GraphPad Prism software.

[4] = MV4-11 cells, 3 h incubation, cMYC mRNA

Structure (SMILES)	IC50 [1] [nM]	IC50 [2, 4] [nM]	IC50 ([3]; MV4-11 cells, 72 h incubation) [nM]	IC50 ([2]; MV4-11, 3 h) [nM]	IC50 ([3]; MV4-11, 72 h) [nM]
C=CC(=O)N(C)c1cnc2nc(N(C)C)n(Cc3ccccc3)c2c1 [Example 19, N-(1-Benzyl-2-(dimethylamino)-1H-imidazo[4,5-b]pyridin-6-yl)-N-methylacrylamide]	≤ 300	300 to 3000	3000 to 30000		
C=CC(=O)N(C)c1cnc2nc(NC3CCN(C)CC3)n(Cc3ccccc3)c2c1 [Example 40, N-(1-Benzyl-2-((1-methylpiperidin-4-yl)amino)-1H-imidazo[4,5-b]pyridin-6-yl)-N-methylacrylamide]	≤ 300			3000 to 30000	3000 to 30000
COC(=O)N(C)c1cnc2nc(N3CCCC3)n(Cc3ccccc3)c2c1 [Example 30, Methyl (1-benzyl-2-(pyrrolidin-1-yl)-1H-imidazo[4,5-b]pyridin-6-yl)(methyl) carbamate]	≤ 300			300 to 3000	300 to 3000
C=CC(=O)N(C)c1cnc2nc(N3C[C@H]4CN(C)C[C@H]4C3)n(Cc3ccccc3)c2c1 [Example 27, N-(1-Benzyl-2-((3aR,6aS)-5-methylhexahydropyrrolo[3,4-c]pyrrol-2(1H)-yl)-1H-imidazo[4,5-b]pyridin-6-yl)-N-methylacrylamide]	300 to 3000	3000 to 30000	3000 to 30000		
CN(C(=O)CO)c1cnc2nc(N3CCCC3)n(Cc3ccccc3)c2c1 [Example 32, N-(1-Benzyl-2-(pyrrolidin-1-yl)-1H-imidazo[4,5-b]pyridin-6-yl)-2-hydroxy-N-methylacetamide]	300 to 3000	3000 to 30000	3000 to 30000		
CC(=O)N(C)c1cnc2nc(C)n(Cc3ccccc3)c2c1 [Example 3, N-(1-Benzyl-2-methyl-1H-imidazo[4,5-b]pyridin-6-yl)—N-methylacetamide]	≤ 300			3000 to 30000	3000 to 30000
C=CC(=O)N(CC)c1cnc2nc(C)n(Cc3ccccc3)c2c1 [Example 7, N-(1-Benzyl-2-methyl-1H-imidazo[4,5-b]pyridin-6-yl)-N-ethylacrylamide]	300 to 3000				
CCN(C(C)=O)c1cnc2c(c1)n(Cc1ccccc1)c(=O)n2C [Example 13, N-(1-Benzyl-3-methyl-2-oxo-2,3-dihydro-1H-imidazo[4,5-b]pyridin-6-yl)-N-ethylacetamide]	300 to 3000				
CN(C(=O)C1CC1)c1cnc2nc(N3CCCC3)n(Cc3ccccc3)c2c1 [Example 29, N-(1-Benzyl-2-(pyrrolidin-1-yl)-1H-imidazo[4,5-b]pyridin-6-yl)-N-methylcyclopropanecarboxamide]	≤ 300	300 to 3000	300 to 3000		
C=CC(=O)N(C)c1cnc2c(c1)n(Cc1ccccc1)c(=O)n2C [Example 12, N-(1-Benzyl-3-methyl-2-oxo-2,3-dihydro-1H-imidazo[4,5-b]pyridin-6-yl)-N-methylacrylamide]	≤ 300	3000 to 30000	3000 to 30000		
CCN(C(C)=O)c1cnc2nc(C)n(Cc3ccccc3)c2c1 [Example 6, N-(1-Benzyl-2-methyl-1H-imidazo[4,5-b]pyridin-6-yl)-N-ethylacetamide]	300 to 3000			3000 to 30000	
CC(=O)Nc1cnc2nc(C)n(Cc3ccccc3)c2c1 [Example 1, N-(1-Benzyl-2-methyl-1H-imidazo[4,5-b]pyridin-6-yl)acetamide]	3000 to 30000				
C=CC(=O)N(CC)c1cnc2c(c1)n(Cc1ccccc1)c(=O)n2C [Example 14, N-(1-Benzyl-3-methyl-2-oxo-2,3-dihydro-1H-imidazo[4,5-b]pyridin-6-yl)-N-ethylacrylamide]	300 to 3000				
CN(C(=O)CCCl)c1cnc2c(c1)n(Cc1ccccc1)c(=O)n2C [Example 10, N-(1-Benzyl-3-methyl-2-oxo-2,3-dihydro-1H-imidazo[4,5-b]pyridin-6-yl)-3-chloro-N-methylpropanamide]	3000 to 30000		3000 to 30000		
